Values of other authors in patent publication US20140172387A1, “PREDICTION OF MOLECULAR BIOACTIVATION” (Genentech, Inc., priority 2012, published 2014).
Values after ≈ are worked out from the molar mass of the structure shown. Read-outs that look alike come from different tables or passages of the source. Each block holds one compound with its values, some of them ahead of it.

What was measured:
[1] = not given; remark: listed apart in the source
[2] = biological target: insect nicotinic acetylcholine receptor (nAChR); details: for IC50: insect nAChR
[3] = biological target: α4β2 mammalian nAChR (Homo sapiens, UniProt P17787+P43681)
α4β2 mammalian nAChR, sequence (P43681 29-627 limits assumed): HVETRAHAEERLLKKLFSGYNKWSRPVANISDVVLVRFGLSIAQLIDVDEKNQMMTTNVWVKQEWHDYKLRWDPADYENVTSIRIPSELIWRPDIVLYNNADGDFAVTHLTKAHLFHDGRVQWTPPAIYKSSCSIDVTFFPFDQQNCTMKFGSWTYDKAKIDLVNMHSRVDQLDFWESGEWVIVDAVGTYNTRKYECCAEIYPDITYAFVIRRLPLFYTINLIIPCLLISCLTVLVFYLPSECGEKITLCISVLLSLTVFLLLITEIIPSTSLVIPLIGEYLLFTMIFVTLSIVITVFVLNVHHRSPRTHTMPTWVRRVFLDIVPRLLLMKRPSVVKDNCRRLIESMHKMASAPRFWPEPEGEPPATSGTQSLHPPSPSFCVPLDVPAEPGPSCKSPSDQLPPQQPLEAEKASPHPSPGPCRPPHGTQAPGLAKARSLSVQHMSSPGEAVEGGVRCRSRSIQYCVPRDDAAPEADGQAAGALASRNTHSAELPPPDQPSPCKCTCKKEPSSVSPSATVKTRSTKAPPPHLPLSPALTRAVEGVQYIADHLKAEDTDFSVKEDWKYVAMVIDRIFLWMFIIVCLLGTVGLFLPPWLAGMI
α4β2 mammalian nAChR, sequence (P17787 26-502): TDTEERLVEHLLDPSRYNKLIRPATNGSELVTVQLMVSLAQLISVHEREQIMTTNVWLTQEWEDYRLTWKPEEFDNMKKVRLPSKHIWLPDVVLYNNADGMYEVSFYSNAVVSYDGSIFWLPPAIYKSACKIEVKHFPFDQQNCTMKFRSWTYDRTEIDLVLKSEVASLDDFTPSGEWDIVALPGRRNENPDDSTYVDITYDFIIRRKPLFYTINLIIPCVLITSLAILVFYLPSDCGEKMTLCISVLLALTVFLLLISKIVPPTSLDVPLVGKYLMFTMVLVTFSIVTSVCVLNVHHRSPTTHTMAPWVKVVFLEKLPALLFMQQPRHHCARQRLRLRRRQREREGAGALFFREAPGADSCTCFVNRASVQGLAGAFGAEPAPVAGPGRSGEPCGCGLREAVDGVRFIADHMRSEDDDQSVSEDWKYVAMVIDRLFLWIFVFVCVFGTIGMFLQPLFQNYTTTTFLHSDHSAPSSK

- water solubility (experimental data) (at pH 7): 6.41 µg/mL (≈ 0.0136 mM)
Structure (SMILES): CCc1nn(CCCN2CCN(c3cccc(Cl)c3)CC2)c(=O)n1CCOc1ccccc1 [Nefazodone (1), 1-(3-[4-(3-chlorophenyl)piperazin-1-yl]propyl)-3-ethyl-4-(2-phenoxyethyl)-1H-1,2,4-triazol-5(4H)-one]

- water solubility (experimental data) (at 20° C): 12780 µg/mL (≈ 84.5 mM)
- excreted unchanged in urine [1]: up to 9 % of therapeutic dose
Structure (SMILES): CC(=O)Nc1ccc(O)cc1 [acetaminophen (1), N-acetyl-para-aminophenol]

Structure (SMILES): O=[N+]([O-])NC1=NCCN1Cc1ccc(Cl)nc1 [imidacloprid (1), N-[1-[(6-Chloro-3-pyridyl)methyl]-4,5-dihydroimidazol-2-yl]nitramide]
- IC50 [2]: 4.6 nM
- selectivity for the insect vs. the α4β2 mammalian nAChR ([2]; insect vs. mammalian α4β2 nAChR): > 500 fold
- IC50 [3]: 2600 nM

Structure (SMILES): N=C1NCCN1Cc1ccc(Cl)nc1 [imidacloprid-NH (6), imidacloprid-NH]
- IC50 [2]: 1530 nM
- IC50 ([3]; read-out: IC50): 8.2 nM

Structure (SMILES): C=CCl [vinyl chloride (1), chloroethene]
- water solubility (experimental data): 2700 µg/mL
